Laboratory results reported in patent US9045793B2, “Method of regulating the expression level of survival of motor neuron 1” (KAOHSIUNG MEDICAL UNIVERSITY, priority 2011, dated 2015).
Peptide text beside a SMILES is read from it. * marks the point of attachment. Cbz = O=C(OCc1ccccc1)*

Legend:
[1] = system: SMN protein in SMA patients' skin fibroblast cells; test: Cellular SMN protein level in SMA patients' skin fibroblast cells; assay type: cell-based, human
Description: (§1) Western blot analysis and immunohistochemical staining were performed as described previously. The primary antibodies used in this study were β-actin (1:2,000, Santa Cruz, 1-19), SMN (1:1,000, Santa Cruz, SC-32313), Gemin 2, Gemin 3 and Gemin 5 polyclonal antibody (1:200, Santa Cruz), UCHL1 monoclonal antibodies (1:2,000, Calbiochem.), HA-tag (1:2,000, Sigma), FITC-conjugated anti-mouse, alkaline phosphatase-conjugated anti-rabbit antibodies (1:500, Jackson ImmunoResearch Lab.) and anti-EGFP rabbit polyclonal antibody (1:5,000, produced in-house).
In order to investigate the possibility of therapeutic application, the UCHL1 specific inhibitor was also applied to the SMA patients' skin fibroblast cells. Type II and type III SMA skin fibroblast cells were treated with MG132, a proteasome inhibitor, and LDN-57444.

[2] = system: nucleus gems in NSC34 cells; test: Nucleus gems count by immunofluorescence staining (anti-Gemin 2); assay type: cell-based; settings: for increase of gems number per one hundred cells comparing to vehicle: NSC34 cells, 10 μM; for Total number of nucleus gems per 100 cells: NSC-34 cells
Description: The cellular expression localization of UCHL1 and SMN was determined by immunofluorescence as previously described (Hsu, S. H. et al. (2004) Exp Cell Res, 294, 185-198). HEK 293 and NSC34 cells were cultured on coverslides pre-coated with poly-L-lysine for 16 hours. After washing with cold PBS, cells were fixed with 2% paraformaldehyde in PBS for 30 minutes on ice, and then the slides were washed with PBS for 30 minutes. Cells were permeabilized with buffer containing 0.2% Triton X-100 and 1% NGS in PBS for 20 minutes on ice, and then the slides were washed with PBS to remove excess detergent. Cells were then incubated in anti-EGFP (or anti-HA) and anti-SMN polyclonal antibody (1:200) for 1 hour at room temperature. After washing cells with PBS for 30 minutes, FITC-conjugated […] anti-rabbit and -mouse polyclonal antibody (1:300) was added and the cells were incubated for another 1 hour at room temperature in a humid chamber. Cells were finally counterstained with DAPI to localize the nucleus and observed by confocal microscopy.
In additional to the use of specific UCHL1 inhibitor, the specific shRNAi constructs for UCHL1 were also used to monitor the regulatory effects of UCHL1 on SMN protein. […] The knockdown efficiency of these shRNAi constructs to UCHL1 was 25, 70 and 47% of vector control and the SMN protein was increased 32, 46 and 47% (FIG. 5D). […] The cellular function of elevated SMN was also examined with nucleus gems by immuno-fluorescence staining (FIG. 5E). The nucleus gems stained with anti-Gemin 2 antibody were counted for one hundred NSC34 treated with vehicle or LDN-57444 for 24 hours and 48 hours.

[3] = system: SMN protein in NSC34 cells; test: Cellular SMN protein level after LDN-57444 treatment (Western blot); assay type: cell-based; settings: for SMN protein expression level increase compared to the vehicle group: 5 μM; for SMN protein increase: 10 μM
Description: as §1
The cellular function of UCHL1 on SMN protein was further characterized with an over-expression assay. The UCHL1 was tagged with HA tag and over expressed in HEK293, p19 and NSC34 cells to evaluate the cellular function. […] The regulatory effect of UCHL1 was also confirmed with UCHL1 specific inhibitor (FIGS. 5A and 5B). SMN protein could effectively elevate expression level at 5 μM after LDN-57444 treatment for 8 (38%), 16 (42%), 24 (43%) and 48 (46%) hours compared to the vehicle group (FIGS. 5A and 5B).

[4] = system: ubiquitinated SMN protein in NSC34 cells; test: Cellular ubiquitination of SMN (anti-SMN immunoprecipitation, anti-ubiquitin blot); assay type: cell-based; settings: different concentrations of inhibitor
Description: Immunoprecipitation assays were performed as previously described with some modifications. Cells with endogenous or ectopically expressed UCHL1 were lysed with RIPA buffer containing 0.2% SDS. After sonication, the lysate was diluted with modified RIPA containing 1% NP-40 for immunoprecipitation. Anti-UCHL1 or anti-SMN antibodies were used to immunoprecipitate the protein. The re-suspended IP complexes were then analyzed by Western blot.
Next, to determine the functional significance of this interaction, purified UCHL1 tagged with 6×His was co-incubated with SMN immunoprecipitate and in vitro ubiquitination assay was performed. […] The SMN protein complex was immunoprecipitated from total cell extract treated with different concentrations of UCHL1 inhibitor and the level of ubiquitinated SMN was determined by the use of anti-ubiquitin antibody.

SMILES | increase of cellular SMN protein level ([1]; type I SMA skin fibroblast cells) | increase of cellular SMN protein level ([1]; type II SMA skin fibroblast cells) | increase of cellular SMN protein level ([1]; type III SMA skin fibroblast cells) | increase of gems number per one hundred cells comparing to vehicle ([2]; 24 hours) [fold] | increase of gems number per one hundred cells comparing to vehicle ([2]; 48 hours) [fold] | Total number of nucleus gems per 100 cells ([2]; 10 μmol/l, 24 h) [per 100 cells] | Total number of nucleus gems per 100 cells ([2]; 10 μmol/l, 48 h, medium and LDN-57444 replaced each day) [per 100 cells] | Total number of nucleus gems per 100 cells ([2]; 20 μmol/l, 24 h) [per 100 cells] | Total number of nucleus gems per 100 cells ([2]; 20 μmol/l, 48 h, medium and LDN-57444 replaced each day) [per 100 cells] | SMN protein expression level increase compared to the vehicle group ([3]; 8 hours) [%] | SMN protein expression level increase compared to the vehicle group ([3]; 16 hours) [%] | SMN protein expression level increase compared to the vehicle group ([3]; 24 hours) [%] | SMN protein expression level increase compared to the vehicle group ([3]; 48 hours) [%] | SMN protein increase ([3]; 8 hours) [%] | SMN protein increase ([3]; 16 hours) [%] | SMN protein increase ([3]; 24 hours) [%] | SMN protein increase ([3]; 48 hours) [%] | SMN protein level, time course at high dosage ([3]; 15 μM) | cellular SMN protein level (in words) ([1]; SMA skin fibroblast cells, positive control) | level of ubiquitinated SMN protein [4]
CC(=O)O/N=C1\C(=O)N(Cc2cc(Cl)ccc2Cl)c2ccc(Cl)cc21 [LDN-57444] | 52-62% | 31-38% | 72-87% | 2.25 | 2.54 | 142±7.55 | 164 ± 8.50 | 189 ± 10.72 | 193 ± 10.21 | 38 | 42 | 43 | 46 | 40 | 56 | 83 | 53 | time delay increase in SMN protein level until 16 hours |  | 
CC(C)C[C@@H](C=O)NC(=O)[C@H](CC(C)C)NC(=O)[C@H](CC(C)C)NC(=O)OCc1ccccc1 [MG132] (Cbz-Leu-Leu-Leu-aldehyde) |  |  |  |  |  |  |  |  |  |  |  |  |  |  |  |  |  |  | increased cellular SMN protein level | same enhancement
